Results on eight compounds are retold here after US20260191196A1, “COMPOSITIONS AND METHODS FOR IMPROVING SOIL MICROBIAL POPULATIONS” (SYNGENTA CROP PROTECTION AG, priority 2022, published 2026).

Assay [1] has as its system arbuscular mycorrhizae fungi. Briefly: Mycorrhization in soybean roots after seed treatment. The class given is in vivo. The note with it: Glycine max; soybean variety Toliman, seed treatment 0.15 mg ai/seed, mycorrhizal inoculant Blend A; relative to control; read-out: [%] arbuscular mycorrhizae fungi colonization vs. control. The method, then: Soybeans of variety Toliman were treated with 0.15 mg ai/seed of cyclobutrifluram and analogues, and planted in 1.5 L pots of 0-3 mm sieved soil. The seeds were inoculated with Bradyrhizobium japonicum using a commercially available product for soybeans.
In a first series, for each active ingredient tested, 15 replicate pots were sowed. In each pot, 3 seeds were sowed. After germination, 2 seedling was removed from each pot to a final number of 1 plant per pot. Each pot was inoculated with a small amount of a mycorrhizal inoculant (Blend A, commercially available from Symbiom, Czech Republic). The plants were grown in a greenhouse for 81 days under the following conditions: Humidity at 45-64%, Temperature of 22° C. to 24° C., in a 16/8 hour day/night cycle. In a further test series, Soybeans seeds treated as outlined above were then planted in 1 Lpots of 0-3 mm sieved soil. For each active ingredient, 8 replicate pots were sowed, whereby in each pot, 3 seeds were sowed. After germination, 2 seedlings were removed from each pot to a final number of 1 plant per pot.
The plants were then grown in a growth chamber for 42 days with the following conditions: Temperature of 20° C. and with a 12/12 hour day/night.
After harvest, the percent mycorrhization was quantified using the methods of McGonigle et al. (T. P. McGONIGLE, M. H. MILLER and D. G. EVANS et al., “A new method which gives an objective measure of colonization of roots by vesicular-arbuscular mycorrhizal fungi”. New Phytol. Vol. 115 (3): 495-501.).

Assay [2] deals with bacteria (16S) and fungi (ITS) communities. The experiment in a line: Potato field trial: soil microbiome community and biodiversity. The assay is classed as in vivo, potato (Solanum tuberculosum L.). The protocol: In this experiment, assuming that biodiversity can be measured by the taxonomic richness and abundance of each taxon, the differences between treatments are determined and their effect on populations and beneficial species over time is verified. This leads to testing two hypotheses. Firstly, there is an impact of cyclobutrifluram applications on microbial diversity. Secondly, the use of cyclobutrifluram improves beneficial microbial diversity over time. These hypotheses were tested in two potato farms in the USA.
The experiment was carried out in two potato (Solanum tuberculosum L.) fields located in two test locations in Louisiana, USA, described as locations A and B in Table 2. In each experimental field, three products were tested in an area of 10 m^2 (Table 3) and three replicates per product were established by complete block randomized. To evaluate the effects on the microbiome a “Check” plot (untreated) was established. In addition, fluopyram was employed as a comparative example. Fluopyram is a widely used fungicide and nematicide, and represents the industry standard herein.
To analyse the microbial biodiversity, three soil samples were taken per treatment and each sample consisted of soil collected from three different points within the plots. In this way, the effect of soil variability was minimized, since there were nine samples per treatment. […]
As set out above, to detect microbial community modifications in the soil microbiome associated with the cyclobutrifluram treatment, PCR amplification and successive high-throughput sequencing of bacterial and fungal taxonomical marker genes (the small-subunit ribosomal RNA gene (16S) and the ribosomal internal transcribed spacers (ITS) respectively) were performed on plant-associated soil samples. An exploratory data analysis was conducted to describe the microbial biodiversity and the behaviour of the percentage of the abundance of species under the evaluated factors. […]

As to `O=C(N[C@@H]1CO[C@@H]1c1ccc(F)cc1F)c1nccnc1C(F)(F)F` (racemic) [Compound A5], the response vs control in vivo at 0.15 mg/seed in assay [1] turned out to be 81%. As to `O=C(N[C@@H]1CO[C@@H]1c1ccc(Cl)cc1Cl)c1nccnc1C(F)(F)F` (racemic) [Compound A6], in assay [1], the response vs control in vivo at 0.15 mg/seed is 97%. As to `O=C(N[C@@H]1CO[C@@H]1c1ccc(Cl)cc1Cl)c1cccnc1C(F)(F)F` (racemic) [Compound A7], the response vs control in vivo at 0.15 mg/seed in assay [1] came out at 76%.

As for `O=C(N[C@H]1CC[C@H]1c1ccc(F)cc1F)c1nccnc1C(F)(F)F` [Compound A1], the response vs control in vivo at 0.15 mg/seed in assay [1] amounted to 61%. Same read-out and setting: for `O=C(N[C@H]1CC[C@H]1c1ccc(F)cc1Cl)c1cccnc1C(F)(F)F` [Compound A2] the value was 72%. Consider `O=C(N[C@H]1CC[C@H]1c1ccc(F)cc1Cl)c1ncccc1C(F)(F)F` [Compound A3], for which the response vs control in vivo at 0.15 mg/seed in assay [1] was 84%. In the case of `O=C(N[C@H]1CC[C@H]1c1ccc(F)cc1F)c1ncccc1C(F)(F)F` [Compound A4], the response vs control in vivo at 0.15 mg/seed in assay [1] was determined as 67%. Turning to `O=C(NCCc1ncc(C(F)(F)F)cc1Cl)c1ccccc1C(F)(F)F` [fluopyram], the “beneficial effect on soil microbiome” value in assay [2] is listed as “did not show any beneficial effect”. Further, the “impact on plant-pathogenic microbes” value in assay [2] (250 gai/ha) is “showed an impact in promoting in particular plant-pathogenic microbes”.
